The values below come from patent US20250376522A1, “Targeting Cells with a Combination of CXCR2 Inhibition and CD47 Blockade” (The Board of Trustees of the Leland Stanford Junior …, priority 2022, published 2025).

One may read the Kd as the equilibrium constant for the complex coming apart.

The target of test [1] is T1, CXCR2 (Homo sapiens, UniProt P25025).
T1 sequence (P25025 1-360): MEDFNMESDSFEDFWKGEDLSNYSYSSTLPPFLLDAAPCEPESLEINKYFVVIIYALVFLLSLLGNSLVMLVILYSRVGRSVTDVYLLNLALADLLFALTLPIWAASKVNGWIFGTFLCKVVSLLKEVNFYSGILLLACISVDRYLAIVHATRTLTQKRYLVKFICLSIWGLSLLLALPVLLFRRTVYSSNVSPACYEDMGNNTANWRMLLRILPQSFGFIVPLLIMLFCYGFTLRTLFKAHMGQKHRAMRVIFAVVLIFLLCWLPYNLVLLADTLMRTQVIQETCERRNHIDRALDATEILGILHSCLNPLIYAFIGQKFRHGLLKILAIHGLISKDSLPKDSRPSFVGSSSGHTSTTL
The settings on record: cited from earlier work.

Another test concerns B16-F10 melanoma. Kind of test: B16-F10 melanoma in control and Poly I:C-treated CSF1R Fl/Fl-Mx1-Cre mice treated with CXCR2 inhibitor. It counts as in vivo, mouse. On the procedure: FIGS. 5A-5D. A) CSF1R^FI/FI-Mx1-Cre mice received three intraperitoneal injections of Poly I:C (100 ug) and were rested for one week. 5×10^5 B16-F10 mouse melanoma cells were then subcutaneously engrafted into flanks of control and Poly I:C-treated CSF1R^FIFI-Mx1-Cre mice. Following the day of engraftment, mice were either untreated or treated daily with 2 mg/kg SB225002 (CXCR2 inhibitor). Burden of B16-F10 melanoma tumors in control and Poly I:C-treated CSF1R^FIFI-Mx1-Cre mice treated with or without SB225002. Data are mean±s.e.m. (n=5 mice per group). B) Flow cytometry analysis of M-MDSCs and G-MDSCs in tumors of mice. MDSCs are gated on CD11b+ cells. Data are mean±s.e.m. (n=5 mice per group). C) Flow cytometry analysis of M-MDSCs and G-MDSCs in bone marrow of tumor-bearing mice. MDSCs are gated on CD11b+ cells. Data are mean±s.e.m. (n=5 mice per group). D) Flow cytometry analysis of M-MDSCs and G-MDSCs in the peripheral blood of tumor-bearing mice. MDSCs are gated on CD11b+ cells. Data are mean±s.e.m. (n=5 mice per group).
Targeting G-MDSCs in B16-F10 melanoma with a CXCR2 inhibitor. To determine whether targeting CXCR2+ G-MDSCs could lead to an anti-tumor response, poly I:C and PBS mice were subcutaneously engrafted with B16-F10 melanoma. The day after engraftment, mice were treated intraperitoneally with PBS or SB225002 six days per week. […] Tumors were harvested and subjected to flow cytometry for immunophenotyping.
Flow cytometry. Samples were blocked with monoclonal antibody to CD16/32 (TruStain fcX, BioLegend) before staining with antibody panels. Samples were stained for 30 min on ice, and subsequently washed with FACS buffer (PBS with 1% FBS buffer). Fluorescence compensations were performed using single-stained UltraComp eBeads (Affymetrix). The following antibodies were used for FACS analysis: Anti-CD11b (M1/70 BD Biosciences); Anti-F4/80 (BM8 BioLegend); Anti-Ly6G (1A8 BioLegend), Anti-Ly6C (HK1.4 BioLegend); Anti-CXCR2 (SA044G4 BioLegend). SYTOX blue dead cell stain (Invitrogen) was used for dead cell exclusion. Data was acquired using a FACSAria II cell sorter (BD Biosciences) and analyzed using FlowJo software.
In vivo tumor experiments and treatments. Mice 6-8 weeks of age were given subcutaneous injection of B16-F10 melanoma cells in PBS into the right flank. Tumor growth was measured by using calipers and volumes were calculated by using the formula: volume= 4/3π×(x/2)2×(y/2), where x is the largest measurable dimension of the tumor and y is the dimension immediately perpendicular to x. Tumor volumes were evaluated using two-way ANOVA in GraphPad Prism. For tumor treatments, mice were given mouse IgG1 isotype control clone MOPC21 (BioXCell), anti-CD47 mAb clone MIAP410 (BioXCell), or SB225002 (ToCris) by intraperitoneal injection.

In the next test the test system is CXCR2+ G-MDSCs. Put plainly: Thioglycolate-induced peritonitis, G-MDSC recruitment to peritoneum (flow cytometry). The test is classed as in vivo, mouse. The note with it: 2 mg/kg IP at thioglycolate infusion and 12 hr later; peritoneal cells harvested at 24 h; control and Poly I:C-treated mice. On the procedure:
FIGS. 3A-3B. A) Representative flow cytometry plots of CXCR2 expression on peritoneal M-MDSCs and G-MDSCs of control and Poly I:C-treated CSF1R^FIFI-Mx1-Cre mice (n=5 mice). Peritoneal cells were harvested […] after thioglycolate infusion (n=5 mice). B) Representative flow cytometry plots of peritoneal M-MDSCs and G-MDSCs harvested 24 hrs after thioglycolate infusion of control and Poly I:C-treated CSF1R^FI/FI-Mx1-Cre mice (n=5 mice). Mice were either untreated or treated with 2 mg/kg SB225002 (CXCR2 inhibitor) at time of thioglycolate infusion and 12 hrs before harvesting (n=5 mice).
Blocking G-MDSC recruitment in thioglycolate-induced peritonitis with a CXCR2 inhibitor. The C-X-C chemokine receptor 2 (CXCR2) signaling axis plays a key role in the migration of immunosuppressive MDSCs. To identify whether these subsets of MDSCs in the peritoneal cavity elicited through thioglycolate-induced peritonitis express CXCR2, peritoneal cells were harvested 24 hours after intraperitoneal injection of thioglycolate and were analyzed by flow cytometry (FIG. 3A). […] At the 24 h time point, peritoneal cells were harvested and analyzed by flow cytometry (FIG. 3B).
Flow cytometry. […] Fluorescence compensations were performed using single-stained UltraComp eBeads (Affymetrix). […] Data was acquired using a FACSAria II cell sorter (BD Biosciences) and analyzed using FlowJo software. […]
(Flow cytometry measures light scatter and fluorescence of single cells or particles in a stream.)

A further test concerns the target T2, CXCR1 (Homo sapiens, UniProt P25024).
T2 sequence (P25024 1-350): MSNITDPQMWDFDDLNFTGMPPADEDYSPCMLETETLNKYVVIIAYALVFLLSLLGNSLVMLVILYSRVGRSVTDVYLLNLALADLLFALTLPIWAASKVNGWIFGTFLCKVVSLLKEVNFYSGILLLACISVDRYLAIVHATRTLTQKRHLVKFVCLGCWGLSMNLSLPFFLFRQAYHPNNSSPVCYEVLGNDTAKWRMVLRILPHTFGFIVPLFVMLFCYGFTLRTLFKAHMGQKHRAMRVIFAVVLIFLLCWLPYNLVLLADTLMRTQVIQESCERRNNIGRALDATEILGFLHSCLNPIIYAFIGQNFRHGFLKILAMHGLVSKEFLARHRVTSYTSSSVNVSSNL
The note with it: read-out: Kd of IL-8 binding to CXCR1; cited from earlier work.

For test [2], the target named is T1, CXCR2. The settings on record: read-out: Kd of IL-8 binding to CXCR2; cited from earlier work.

As for `CC[C@@H](Nc1c(Nc2cccc(C(=O)N(C)C)c2O)c(=O)c1=O)c1ccc(C)o1` [Navaraxin, Navarixin], the Selective/Pan entry at CXCR2 [1] is “Selective”.

Turning to `O=C(Nc1ccc([N+](=O)[O-])cc1O)Nc1ccccc1Br` [SB225002], the “Tumor progression (burden of B16-F10 melanoma tumors)” value with B16-F10 melanoma (2 mg/kg intraperitoneally from the day after engraftment, especially in mice expressing CSF1R) is on record as “significantly decreased tumor progression”. Further, the “G-MDSCs in bone marrow of tumor-bearing mice” value in the test on B16-F10 melanoma (bone marrow, flow cytometry) is “significant decrease of G-MDSCs”. For the same compound, the “G-MDSCs in peripheral blood of tumor-bearing mice” value in the test on B16-F10 melanoma (peripheral blood, flow cytometry) was “significant decrease of G-MDSCs”. Also, the “Tumor-infiltrating G-MDSCs” value in the test on B16-F10 melanoma (tumors, flow cytometry, gated on CD11b+ cells) is on record as “significant decrease in tumor-infiltrating G-MDSCs”. Also, the Selective/Pan result on CXCR2 [1] was “Selective”. Moreover, the “Percentage of G-MDSCs in the peritoneal cavity” value in the test with CXCR2+ G-MDSCs is listed as “significantly decreased percentage of G-MDSCs”.

With `O=C(Nc1ccc(F)cc1)c1cnc(SCc2cc(OC(F)(F)F)ccc2B(O)O)nc1` [SX-682], the Selective/Pan entry on CXCR2 [1] is “Pan”.

With “IL-8: chemokine ligand of CXCR1 and CXCR2”, the Kd with CXCR1 and with CXCR2 [2] was ~4 nM in each case.
